According to patent publication US20050180922A1, “Block co-polymer worm micelles and methods of use therefor” (priority 2004, published 2005):

What was measured:
microtubules = conditions: cited from earlier work
[1] = Taxol loading into worm micelle core (HPLC); type: physicochemical; conditions: confirmed by HPLC
Protocol: In vitro assays. Drug delivery with liposomes entails loading either hydrophilic drugs or nucleic acids into the interior of the assembly (Wagner et al., Proc. Nat'l Acad. Sci. USA 89:7934 (1992)), or hydrophobic drugs into the lipid bilayer (Wenk et al., J. Pharm. Sci. 85:228 (1996)). The worm micelles in this study were loaded with the drug taxol, one of a variety of hydrophobic drugs available for killing tumor cells. Taxol binds to, and toxically stabilizes, microtubules at 1-10 nM (Gloushankova et al., Proc. Nat'l. Acad. Sci. USA 91:8597 (1994)).

Compound: CC(=O)O[C@H]1C(=O)[C@@]2(C)[C@H]([C@H](OC(=O)c3ccccc3)[C@]3(O)C[C@H](OC(=O)[C@H](O)[C@@H](NC(=O)c4ccccc4)c4ccccc4)C(C)=C1C3(C)C)[C@]1(OC(C)=O)CO[C@@H]1C[C@@H]2O [taxol, paclitaxel]
- concentration that binds and toxically stabilizes microtubules (microtubules): 1 to 10 nM
- taxol partition into hydrophobic core [1]: one molecule of taxol partitions into the hydrophobic core per ten copolymers
